Laboratory results as given in US6964952B2, “Therapeutic composition for broad spectrum dermal disease” (Doosan Corporation, priority 2001, dated 2005).

Legend:
protein kinase C (PKC) = assay: Inhibition of protein kinase C in mouse epidermal cell line Pam212; type: cell-based; conditions: Pam212 cells treated at 100 μM and 400 μM; FIG. 6
Description: An anti-inflammation effect of the cream composition according to the invention was evaluated by assessing inhibition of protein kinase C (PKC) in mouse epidermal cell line (Pam212). The cultured epidermal cells at 2×10^7 cells/ml were treated with phytosphingosine or derivatives thereof at final concentrations of 100 μM, and 400 μM. After washing with PBS, the cells were disrupted using a homogenizer and centrifuged. The supernatant was passed through a DE52 column to obtain a fraction containing PKC. To measure the amount of activated PKC in the fractions, 5 μl each of a PKC coactivation 5× buffer, PKC activation 5× buffer, PKC biotinylated peptide substrate and ^32P-ATP mixture were added to a tube. For a negative control, 5 μl each of a PKC coactivation 5× buffer, Control 5× buffer, PKC biotinylated peptide substrate and ^32P-ATP mixture were measured. To the tubes were added 5 μl of respective PKC fractions. The reaction was performed at 30° C. for 5 min. After terminating the reaction by adding a 12.5 μl stop solution, a 10 μl aliquot was dropped on a SAM^2™ membrane. The membrane was washed 1× with 2M NaCl for 30 sec, 3× with 2M NaCl for 2 min, 4× with a solution of 1% H3PO4 and 2M NaCl for 2 min, and 2× with distilled water for 30 sec, followed by drying. Radioactivity was measured to examine a PKC inhibition effect.

[1] = system: full-thickness circular ear wounds; assay: Wound repair in rabbits (6 mm punch wounds in ears); type: in vivo, New Zealand White rabbits; conditions: rabbit ear wounds; 5, 10, 50 μM, 10 μl every second day; FIG. 3
Description: As an experimental animal model, female New Zealand White rabbits (2 kg in body weight) were employed to evaluate the efficacy of phytosphingosine and derivatives thereof on wound healing.
The rabbits were anesthetized with an intramuscular injection of ketamine (3 to 4 mg/kg). After removing hairs and a horny layer (stratum corneum) inside the both ears, 4 full-thickness circular wounds were created in each ear using a 6 mm-punch biopsy. As a control, PBS solution containing 0.1% BSA was applied to the wound regions at an amount of 10 μl every second day. For test groups, a composition comprising lysophosphatidic acid only, a composition comprising sphingolipid long-chain base only, and a composition comprising a combination thereof were applied each at varying concentrations (5 μM, 10 μM and 50 μM) at a volume of 10 μl every second day. The wounds applied with those agents were sealed with Cathreep (Nichiban Co., Japan). On 4th and 8th day after application, the rabbits were sacrificed, and the wound areas were histologically examined.

Langerhans cells = assay: Effect on number of Langerhans cells in skin explant; type: cell-based; conditions: 1% test sample
Description: Langerhans cells play a role in mediating immune response of the skin. Treatment of skin disorders related to a hypersensitive immune response can be accomplished by regulating either the number or the antigen-presenting ability of Langerhans cells. To examine the efficacy of sphingolipid long-chain base on the regulation of the number of Langerhans cells, a test was performed as follows. Each skin explant was applied with a 1% test sample containing sphingolipid.

human skin fibroblasts [2] = type: cell-based
human skin fibroblasts [3] = assay: Tracing metabolic pathway in human skin fibroblasts (TLC of lipid extracts); type: in vitro ADME; conditions: 20 μM, 48 hrs
Description: Human skin fibroblasts were employed as the cell line for the study. Phytosphingosine, tetraacetyl phytosphingosine, and acetyl phytosphingosine were respectively dissolved in a mixture of ethanol/dodecane, preparing stock solutions at certain concentrations. When the fibroblasts became confluent in 7 cm diameter culture dishes, 20 μM of the respective test samples was added and cultured in a CO2 incubator for 48 hrs. Cells were harvested and treated according to a common extraction method for sphingolipids. Hydrolysis was performed under basic conditions at 37° C. overnight. The samples were passed through a reverse phase column to remove salts. The desalted lipid extracts were subjected to a TLC analysis on Silica gel 60 G plates (Merck, Germany), using chloroform/methanol/concentrated acetic acid (190/9/1) to elute neutral lipids.

Compound | PKC inhibition effect (protein kinase C (PKC)) | Rates of wound healing (%) compared to untreated control group [1] | Efficacy on reducing the number of Langerhans cells (comparison) (Langerhans cells) | Cytotoxicity relative to other sphingolipid long-chain bases (human skin fibroblasts [2]) | Metabolic conversion within the cells (human skin fibroblasts [3])
CCCCCCCCCCCCCC[C@@H](O)[C@@H](O)[C@H](CO)NC(C)=O [N-acetyl phytosphingosine] | excellent PKC inhibition effects |  |  |  | 
CCCCCCCCCCCCCC[C@@H](O)[C@@H](O)[C@@H](N)CO [phytosphingosine] | excellent PKC inhibition effects | highly accelerate the rates of wound healing | greater than that of tetraacetyl phytosphingosine |  | 
lysophosphatidic acid |  | highly accelerate the rates of wound healing |  |  | 
tetraacetyl phytosphingosine | excellent PKC inhibition effects |  |  | lower cytotoxicity than other sphingolipid long-chain bases | converted to C2-phytoceramide
